The record followed here is patent US9499550B2 (BRISTOL-MYERS SQUIBB COMPANY, priority 2012, dated 2016).

By pEC50 is commonly meant −log10 of the EC50, conventionally taken in molar units.

Molecules are shown by their SMILES. pEC50: −log10 of the molar value. Some results are limits rather than exact numbers.

Assay [1] has as its system HCV genotype 1a (H77 strain) replicon in HUH-7 cells. Kind of assay: HCV replicon luciferase reporter assay, genotype 1a. The assay is classed as cell-based. The settings on record: Hepatitis C virus, Huh-7, 72 h, HCV genotype 1a replicon luciferase, 3 days incubation, read-out: LE_1a (EC50, range). In a few lines: (§1)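 Replicon inhibition for both genotypes was measured as Renilla luciferase signal (EnduRen, 7.5 μM final, 2 h) after 3-day, 37° C exposure of replicon-bearing HUH-7 cells in 4% FCS DMEM, 0.5% DMSO. The 1b construct carries S1179I; the 1a H77 construct carries P1496L and S2204I. Twenty-point, 3-fold dilutions were fitted four-parametrically for EC50, and CC50 was taken from multiplexed Cell Titer-Blue.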
(In general: A replicon is a self-replicating genome or part of one, used to study replication in cells.)

The test system of assay [2] is HCV genotype 1b (Con1) replicon in HUH-7 cells. The assay can be described thus: HCV replicon luciferase reporter assay, genotype 1b. The assay is classed as cell-based. To be noted: Hepatitis C virus, Huh-7, 72 h, HCV genotype 1b replicon luciferase, 3 days incubation, read-out: LE_1b (EC50, range). In a few lines: as §1

Take `C[C@H]1CC/C=C\[C@@H]2C[C@@]2(C(=O)NS(=O)(=O)C2CC2)NC(=O)[C@@H]2C[C@@H](Oc3nccc4c5c(ccc34)OC(F)(F)O5)CN2C(=O)[C@@H](NC(=O)OC(C)(C)C(F)(F)F)[C@H](C)C1` [Compound 5267, 1,1,1-trifluoro-2-methylpropan-2-yl((2R,6S,7R,9S,13aS,14aR,16aS,Z)-14a-((cyclopropylsulfonyl)carbamoyl)-2-((2,2-difluoro-[1,3]dioxolo[4,5-f]isoquinolin-6-yl)oxy)-7,9-dimethyl-5,16-dioxo-1,2,3,5,6,7,8,9,10,11,13a,14,14a,15,16,16a-hexadecahydrocyclopropa[e]pyrrolo[1,2-a][1,4]diazacyclopentadecin-6-yl)carbamate]: the pEC50 in assay [1] and in assay [2] was 6.99 to 8.32 each time.
For `C[C@@H]1CC/C=C\[C@@H]2C[C@@]2(C(=O)NS(=O)(=O)C2CC2)NC(=O)[C@@H]2C[C@@H](Oc3nccc4c5c(ccc34)OC(F)(F)O5)CN2C(=O)[C@@H](NC(=O)OC(C)(C)C(F)(F)F)[C@H](C)C1` [Compound 5268, 1,1,1-trifluoro-2-methylpropan-2-yl((2R,6S,7R,9R,13aS,14aR,16aS,Z)-14a-((cyclopropylsulfonyl)carbamoyl)-2-((2,2-difluoro-[1,3]dioxolo[4,5-f]isoquinolin-6-yl)oxy)-7,9-dimethyl-5,16-dioxo-1,2,3,5,6,7,8,9,10,11,13a,14,14a,15,16,16a-hexadecahydrocyclopropa[e]pyrrolo[1,2-a][1,4]diazacyclopentadecin-6-yl)carbamate], the pEC50 in assay [1] and in assay [2] was over 8.26 throughout.
On to `C[C@H]1CC/C=C\[C@@H]2C[C@@]2(C(=O)NS(=O)(=O)C2CC2)NC(=O)[C@@H]2C[C@@H](Oc3nccc4c5c(ccc34)OC(F)(F)O5)CN2C(=O)[C@@H](NC(=O)O[C@H](C)C(F)(F)F)[C@H](C)C1` [Compound 5269, (R)-1,1,1-trifluoropropan-2-yl ((2R,6S,7R,9S,13aS,14aR,16aS,Z)-14a-((cyclopropylsulfonyl)carbamoyl)-2((2,2-difluoro-[1,3]dioxolo[4,5-f]isoquinolin-6-yl)oxy)-7,9-dimethyl-5,16-dioxo-1,2,3,5,6,7,8,9,10,11,13a,14,14a,15,16,16a-hexadecahydrocyclopropa[e]pyrrolo[1,2-a][1,4]diazacyclopentadecin-6-yl)carbamate], for which the pEC50 in assay [1] and in assay [2] was 6.99 to 8.32 each time.
In the case of `C[C@@H]1CC/C=C\[C@@H]2C[C@@]2(C(=O)NS(=O)(=O)C2CC2)NC(=O)[C@@H]2C[C@@H](Oc3nccc4c5c(ccc34)OC(F)(F)O5)CN2C(=O)[C@@H](NC(=O)O[C@H](C)C(F)(F)F)[C@H](C)C1` [Compound 5270, (R)-1,1,1-trifluoropropan-2-yl ((2R,6S,7R,9R,13aS,14aR,16aS,Z)-14a-((cyclopropylsulfonyl)carbamoyl)-2((2,2-difluoro-[1,3]dioxolo[4,5-f]isoquinolin-6-yl)oxy)-7,9-dimethyl-5,16-dioxo-1,2,3,5,6,7,8,9,10,11,13a,14,14a,15,16,16a-hexadecahydrocyclopropa[e]pyrrolo[1,2-a][1,4]diazacyclopentadecin-6-yl)carbamate], the pEC50 in assay [1] and in assay [2] was over 8.26 in each case.
Turning to `C[C@H]1CC/C=C\[C@@H]2C[C@@]2(C(=O)NS(=O)(=O)C2CC2)NC(=O)[C@@H]2C[C@@H](Oc3nccc4c5c(ccc34)OC(F)(F)O5)CN2C(=O)[C@@H](NC(=O)OCC2(C)CC2)[C@H](C)C1` [Compound 5271, (1-methylcyclopropyl)methyl ((2R,6S,7R,9S,13aS,14aR,16aS,Z)-14a-((cyclopropylsulfonyl)carbamoyl)-2-((2,2-difluoro-[1,3]dioxolo[4,5-f]isoquinolin-6-yl)oxy)-7,9-dimethyl-5,16-dioxo-1,2,3,5,6,7,8,9,10,11,13a,14,14a,15,16,16a-hexadecahydrocyclopropa[e]pyrrolo[1,2-a][1,4]diazacyclopentadecin-6-yl)carbamate], the pEC50 in assay [1] and in assay [2] was 6.99 to 8.32 in each case.
On to `C[C@@H]1CC/C=C\[C@@H]2C[C@@]2(C(=O)NS(=O)(=O)C2CC2)NC(=O)[C@@H]2C[C@@H](Oc3nccc4c5c(ccc34)OC(F)(F)O5)CN2C(=O)[C@@H](NC(=O)OCC2(C)CC2)[C@H](C)C1` [Compound 5272, (1-methylcyclopropyl)methyl ((2R,6S,7R,9R,13aS,14aR,16aS,Z)-14a-((cyclopropylsulfonyl)carbamoyl)-2-((2,2-difluoro-[1,3]dioxolo[4,5-f]isoquinolin-6-yl)oxy)-7,9-dimethyl-5,16-dioxo-1,2,3,5,6,7,8,9,10,11,13a,14,14a,15,16,16a-hexadecahydrocyclopropa[e]pyrrolo[1,2-a][1,4]diazacyclopentadecin-6-yl)carbamate], for which the pEC50 in assay [1] and in assay [2] was over 8.26 in each case.
For `C[C@H]1CC/C=C\[C@@H]2C[C@@]2(C(=O)NS(=O)(=O)C2CC2)NC(=O)[C@@H]2C[C@@H](Oc3nccc4c5c(ccc34)N(C)CCO5)CN2C(=O)[C@@H](NC(=O)OC(C)(C)C)[C@H](C)C1` [Compound 5275, tert-butyl ((2R,6S,7R,9S,13aS,14aR,16aS,Z)-14a-((cyclopropylsulfonyl)carbamoyl)-7,9-dimethyl-2-((4-methyl-3,4-dihydro-2H-[1,4]oxazino[2,3-f]isoquinolin-7-yl)oxy)-5,16-dioxo-1,2,3,5,6,7,8,9,10,11,13a,14,14a,15,16,16a-hexadecahydrocyclopropa[e]pyrrolo[1,2-a][1,4]diazacyclopentadecin-6-yl)carbamate], the pEC50 in assay [1] and in assay [2] was over 8.26 each time.
On to `C[C@@H]1CC/C=C\[C@@H]2C[C@@]2(C(=O)NS(=O)(=O)C2CC2)NC(=O)[C@@H]2C[C@@H](Oc3nccc4c5c(ccc34)N(C)CCO5)CN2C(=O)[C@@H](NC(=O)OC(C)(C)C)[C@H](C)C1` [Compound 5276, tert-butyl ((2R,6S,7R,9R,13aS,14aR,16aS,Z)-14a-((cyclopropylsulfonyl)carbamoyl)-7,9-dimethyl-2-((4-methyl-3,4-dihydro-2H-[1,4]oxazino[2,3-f]isoquinolin-7-yl)oxy)-5,16-dioxo-1,2,3,5,6,7,8,9,10,11,13a,14,14a,15,16,16a-hexadecahydrocyclopropa[e]pyrrolo[1,2-a][1,4]diazacyclopentadecin-6-yl)carbamate], for which the pEC50 in assay [1] and in assay [2] was over 8.26 in each case.
For the molecule `C[C@H]1CC/C=C\[C@@H]2C[C@@]2(C(=O)NS(=O)(=O)C2CC2)NC(=O)[C@@H]2C[C@@H](Oc3nccc4c5c(ccc34)N(C)CCO5)CN2C(=O)[C@@H](NC(=O)OC(C)(C)C(F)(F)F)[C@H](C)C1` [Compound 5277, 1,1,1-trifluoro-2-methylpropan-2-yl((2R,6S,7R,9S,13aS,14aR,16aS,Z)-14a-((cyclopropylsulfonyl)carbamoyl)-7,9-dimethyl-2-((4-methyl-3,4-dihydro-2H-[1,4]oxazino[2,3-f]isoquinolin-7-yl)oxy)-5,16-dioxo-1,2,3,5,6,7,8,9,10,11,13a,14,14a,15,16,16a-hexadecahydrocyclopropa[e]pyrrolo[1,2-a][1,4]diazacyclopentadecin-6-yl)carbamate], the pEC50 in assay [1] and in assay [2] was over 8.26 throughout.
For `C[C@@H]1CC/C=C\[C@@H]2C[C@@]2(C(=O)NS(=O)(=O)C2CC2)NC(=O)[C@@H]2C[C@@H](Oc3nccc4c5c(ccc34)N(C)CCO5)CN2C(=O)[C@@H](NC(=O)OC(C)(C)C(F)(F)F)[C@H](C)C1` [Compound 5278, 1,1,1-trifluoro-2-methylpropan-2-yl((2R,6S,7R,9R,13aS,14aR,16aS,Z)-14a-((cyclopropylsulfonyl)carbamoyl)-7,9-dimethyl-2-((4-methyl-3,4-dihydro-2H-[1,4]oxazino[2,3-f]isoquinolin-7-yl)oxy)-5,16-dioxo-1,2,3,5,6,7,8,9,10,11,13a,14,14a,15,16,16a-hexadecahydrocyclopropa[e]pyrrolo[1,2-a][1,4]diazacyclopentadecin-6-yl)carbamate], the pEC50 in assay [1] and in assay [2] was over 8.26 each time.
As for `[2H]C([2H])([2H])C(OC(=O)N[C@@H]1C(=O)N2C[C@H](Oc3nccc4c5c(ccc34)N(C)CCO5)C[C@H]2C(=O)N[C@]2(C(=O)NS(=O)(=O)C3CC3)C[C@H]2/C=C\CC[C@H](C)C[C@H]1C)(C([2H])([2H])[2H])C(F)(F)F` [Compound 5279, 1,1,1,3,3,3-hexadeutero-2-(trifluoromethyl)propan-2-yl((2R,6S,7R,9S,13aS,14aR,16aS,Z)-14a-((cyclopropylsulfonyl)carbamoyl)-7,9-dimethyl-2-((4-methyl-3,4-dihydro-2H-[1,4]oxazino[2,3-f]isoquinolin-7-yl)oxy)-5,16-dioxo-1,2,3,5,6,7,8,9,10,11,13a,14,14a,15,16,16a-hexadecahydrocyclopropa[e]pyrrolo[1,2-a][1,4]diazacyclopentadecin-6-yl)carbamate], the pEC50 in assay [1] and in assay [2] was 6.99 to 8.32 in each case.
Consider `[2H]C([2H])([2H])C(OC(=O)N[C@@H]1C(=O)N2C[C@H](Oc3nccc4c5c(ccc34)N(C)CCO5)C[C@H]2C(=O)N[C@]2(C(=O)NS(=O)(=O)C3CC3)C[C@H]2/C=C\CC[C@@H](C)C[C@H]1C)(C([2H])([2H])[2H])C(F)(F)F` [Compound 5280, 1,1,1,3,3,3-hexadeutero-2-(trifluoromethyl)propan-2-yl((2R,6S,7R,9R,13aS,14aR,16aS,Z)-14a-((cyclopropylsulfonyl)carbamoyl)-7,9-dimethyl-2-((4-methyl-3,4-dihydro-2H-[1,4]oxazino[2,3-f]isoquinolin-7-yl)oxy)-5,16-dioxo-1,2,3,5,6,7,8,9,10,11,13a,14,14a,15,16,16a-hexadecahydrocyclopropa[e]pyrrolo[1,2-a][1,4]diazacyclopentadecin-6-yl)carbamate], for which the pEC50 in assay [1] and in assay [2] was over 8.26 throughout.
